Results from patent US20190298740A1, “METHODS AND COMPOSITIONS FOR TREATING HALLUCINATIONS AND CONDITIONS RELATED TO THE SAME” (Enterin, Inc., priority 2018, published 2019).

Assays:
[1] = test system: patients with PD; experiment: CNS symptoms in Stage 2 (UPDRS, MMSE, PDHQ, BDI-II, direct questioning); type: in vivo, human; details: for PDHQ / BDI-II / UPDRS Part 2 (Daily living) / MMSE / UPDRS Part 3 (Motor): mean (SD); for PDHQ: baseline 1.3 (2.99); for BDI-II: baseline 10.9 (7.12); for UPDRS Part 2 (Daily living): baseline 14.9 (8.11); for MMSE: baseline 28.4 (1.75); for UPDRS Part 3 (Motor): baseline 35.3 (14.35)
Source text: Exploratory end-points, in addition to constipation, included for example, (i) depression assessed using the Beck Depression Inventory (BDI-II) (Steer et al. 2000) and Unified Parkinson's Disease Rating Scale (UPDRS); (ii) cognition assessed using the Mini Mental State Examination (MMSE) (Palsteia et al. 2018), Unified Parkinson's Disease Rating Scale (UPDRS), and Trail Making Test (TMT); (iii) sleep and REM-behavior disorder (RBD) using a daily sleep diary, I-Button Temperature Assessment, a REM sleep behavior disorder (RBD) questionnaire (RBDQ) (Stiasny-Kolster et al. 2007), and the UPDRS; (iv) hallucinations assessed using the PD hallucinations questionnaire (PDHQ) (Papapetropoulos et al. 2008), the UPDRS, and direct questioning; (v) fatigue using the Parkinson's Disease Fatigue Scale (PFS-16) and the UPDRS; (vi) motor functions using the UPDRS; and (vii) non-motor functions using the UPDRS.
Assessments were made at baseline and at the end of the fixed dose and washout periods. Circadian system status was evaluated by continuously monitoring wrist skin temperature (Thermochron iButton DS1921H; Maxim, Dallas) following published procedures (Sarabia et al. 2008).
An exploratory analysis was done with respect to the sleep data, the body temperature data, mood, fatigue, hallucinations, cognition and other motor and non-motor symptoms of PD. Continuous measurements within a subject were compared with a paired t-test and continuous measurements between subject groups were compared with a two-group t-test. Categorical data were compared with a chi-squared test or a Fisher's exact test if the expected cell counts are too small for a chi-squared test.
CNS symptoms were evaluated at baseline and at the end of the fixed dose period and the wash-out period (Table 13). Total UPDRS score was 64.4 at baseline, 60.6 at the end of the fixed dose period and 55.7 at the end of the wash-out period (p=0.002); similarly, the motor component of the UPDRS improved from 35.3 at baseline to 33.3 at the end of fixed dose to 30.2 at the end of wash-out (p=0.006). MMSE improved from 28.4 at baseline to 28.7 during treatment and to 29.3 during wash-out (p=0.0006). […] PDHQ improved from 1.3 at baseline to 1.8 during treatment and 0.9 during wash-out (p=0.03). Hallucinations were reported by 5 patients at baseline and delusions in 1 patient. […] The frequency of arm or leg thrashing reported in the sleep diary diminished progressively from 2.2 episodes/week at baseline to 0 at maximal dose. […] Unlike stool-related indices, the improvement in many CNS symptoms persisted during wash-out.

[2] = target: αS (Homo sapiens, UniProt P37840); details: in vitro; cited from earlier work
[3] = Stage 2, n = 34, fixed dose, listed as Squalamine (ENT-01)

Which results are given for CC(C)[C@@H](CC[C@@H](C)[C@H]1CC[C@H]2[C@@H]3[C@H](O)C[C@H]4C[C@@H](NCCCNCCCCN)CC[C@]4(C)[C@H]3CC[C@]12C)OS(=O)(=O)O (single isomer, unassigned) [squalamine (ENT-01)]?
PDHQ ([1]; Stage 2, n = 34, fixed dose): 1.8; PDHQ [1, 3]: 1.8 (3.34); BDI-II ([1]; Stage 2, n = 34, fixed dose): 9.9; UPDRS Part 2 (Daily living) ([1]; Stage 2, n = 34, fixed dose): 14.7 (9.02); MMSE ([1]; Stage 2, n = 34, fixed dose): 28.7; UPDRS Part 3 (Motor) ([1]; Stage 2, n = 34, fixed dose): 33.3; UPDRS Part 3 (Motor) [1, 3]: 33.3 (15.20); PDHQ ([1]; Stage 2, n = 34, wash-out): 0.9; BDI-II ([1]; Stage 2, n = 34, wash-out): 8.7; UPDRS Part 2 (Daily living) ([1]; Stage 2, n = 34, wash-out): 14.1 (8.21); MMSE ([1]; Stage 2, n = 34, wash-out): 29.3; UPDRS Part 3 (Motor) ([1]; Stage 2, n = 34, wash-out): 30.2; UPDRS Part 3 (Motor) ([1]; Stage 2, n = 34, wash-out, listed as Squalamine (ENT-01)): 30.2 (13.23); Dose at which the hallucinations disappeared ([1]; one patient, colonic prokinetic dose 175 mg not yet reached): 100 mg; Formation of aggregates of αS [2]: inhibits the formation of αS aggregates
